Test results taken from patent US9752115B2, “Culture conditions for expansion of nephron progenitor cells” (Maine Medical Center Research Institute, priority 2014, dated 2017).

How the values were obtained:
[1] = system: CITED1+ progenitors; test: Aggregate culture tubulogenesis of purified CITED1+ progenitors; type: cell-based, mouse
Method: Cell culture. CITED1+ progenitors were purified from NZCs derived from E17.5 kidneys as previously described (Brown et al., 2011b; Brown et al., 2013). CITED1+ progenitors were cultured in monolayer on hESC qualified MatrigelTM coated plates (Corning). For human or mouse passage, cells were dissociated by incubation with TrypLE (Life Technologies) for 2 minutes at 37 C, washed and spun 2× at 300 g in autoMACs running buffer (Miltenyi) prior to resuspension in NPEM as described in Table 1. NPEM is changed every 2 days. Cells were differentiated in aggregate culture with CHIR (3 μM) in medium as previously described (Brown et al., 2013). To understand if these observations could be extrapolated to CITED1+ cells in culture, a series of experiments was performed upon nephron progenitor cells isolated from embryonic mouse kidneys. Using a previously developed isolation protocol, CITED1+ progenitors were harvested from embryonic mouse kidneys between the ages of E16.5 to P1 at near 100% purity, allowing interrogation of the CITED1+ population at multiple time points (FIGS. 7A and 7B) (Brown et al., 2013). However, CITED1 progenitor purity dropped to 75% by P2, likely due to the loss of CITED1+ progenitors that occurred during cessation (FIG. 7B and FIG. 6B).

[2] = system: hESC-derived nephron progenitors; test: Subtraction of individual components from NPEM, hESC-derived progenitors; type: cell-based, human; details: passage 3 progenitors, 3 days monolayer
Method: FIGS. 19A and 19B show nephron progenitor marker expression in human ES cell derived cultures grown in the absence of individual factors. In FIG. 19A, passage 3 progenitors were grown in NPEM in the absence of individual factors for 3 days in monolayer culture and immunostained for CITED1, SIX2, PAX2 and WT1. Antibody staining is shown in red and nuclear counterstaining with DAPI is shown in blue. In FIG. 19B, passage 3 progenitors were grown in NPEM in the absence of the indicated factors for 3 days in monolayer culture and immunostained for PAX2.
To understand if cellular growth in NPEM could be directly extrapolated to human cells, the above analysis was repeated with nephron progenitor cells derived from hESCs using the Takasato protocol (Takasato et al., 2014). CITED1+/SIX2+/PAX2+/WT1+ cells generated using this procedure lost expression of nephron progenitor markers following a single passage (FIG. 12A and FIG. 18A). […] When LDN was eliminated from the medium during the passage 2 culture, cells lost expression of PAX2 (FIG. 12C).

[3] = system: E17.5 CITED1+ progenitors; test: Subtraction of individual factors from NPEM, mouse progenitors; type: cell-based; details: for competence for tubulogenesis after subtraction of the factor: 7 days in aggregate culture after monolayer; for progenitor growth and state in the absence of the factor: factor subtracted from NPEM, 3 days monolayer
Method: Flow cytometry. CITED1+ progenitors were purified from GFP+ kidneys isolated from Cited1creERT2-EGFP×ICR mice and cultured as described in the text. GFP fluorescence intensity and cell counts were collected on a FACSCalibur (BD) and data were analyzed using FlowJo software.
Using flow cytometry on E17.5 CITED1+ progenitors derived from Cited1creERT2-EGFP mice, the requirement for each of the culture additives to maintain cells in the undifferentiated state was evaluated by subtracting them from the medium (FIGS. 10A and 10B).
In the absence of LDN, nuclear localization of pSMAD1/5 increased dramatically, as did transcription of the SMAD response gene Cv2 (FIGS. 10C and 10D). […] In addition to losing CITED1 expression, progenitors cultured in the absence of LDN lost expression of characteristic marker genes including […], PAX2, WT1 and […], which may have helped to explain their lack of competence (FIG. 10F and FIG. 14). CITED1+ progenitors isolated from E13.5 kidneys also required LDN to expand while maintaining their competence to differentiate (FIG. 15).

[4] = system: CITED1+ progenitors; details: serum free medium; BIO 2 μM, CHIR99021 3 μM; cited from earlier work
[5] = system: cap mesenchyme; test: Cited1/Six2 EGFP reporter expression in cap mesenchyme of treated pups; type: in vivo, mouse; details: EGFP reporter mice, P2 and P3; untreated animals lost expression
Excerpt: (§1) Fluorescent imaging of GFP expression in cap mesenchymes “C” shown. […] Cap mesenchymes are outlined with dotted red lines. […] Percent remaining after LDN treatment quantified in graph. NZCs were isolated from 4 kidney pairs per treatment group and pooled. […] Representative image from 4 kidney pairs per group shown. […] Data represent the mean±SD of qPCR technical replicates from 5 (DMSO) and 6 (LDN) pooled kidney pairs.
(§2) Mouse strains and treatments. Animal care was in accordance with the National Research Council Guide for the Care and Use of Laboratory Animals and protocols were approved by the Institutional Animal Care and Use Committee of Maine Medical Center. CITED1 progenitors were derived from kidneys of Cited1creERT2-EGFP×ICR (Institute for Cancer Research mice) heterozygous mice. Cited1creERT2-EGFP and Six2cre-EGFP mouse strains are maintained on an FVB/NJ background (Boyle et al., 2008a; Kobayashi et al., 2008).
(§3) LDN was selected over other similar analogs because it is highly specific for SMAD1/5 and has been successfully used in vivo (Yu et al., 2008). […] To measure the differentiation status of nephron progenitor cells, Cited1creERT2-EGFP and Six2cre-EGFP mouse strains were used, which dynamically expressed fluorescent protein under the control of Cited1 and Six2 (Boyle et al., 2008a; Kobayashi et al., 2008). […]

[6] = system: SMAD1/5 phosphorylation; test: pSMAD1/5 immunoblot of nephrogenic zone cells from LDN-treated newborn pups; type: in vivo, mouse; details: immunoblot of isolated NZCs; 3 mg/kg intraperitoneal twice daily P0 until P2
Excerpt: as §1, §2, §3

[7] = target: T1, ALK7 (Homo sapiens, UniProt Q8NER5); details: ALK7, not inhibited; cited from earlier work
T1 sequence (Q8NER5 21-493): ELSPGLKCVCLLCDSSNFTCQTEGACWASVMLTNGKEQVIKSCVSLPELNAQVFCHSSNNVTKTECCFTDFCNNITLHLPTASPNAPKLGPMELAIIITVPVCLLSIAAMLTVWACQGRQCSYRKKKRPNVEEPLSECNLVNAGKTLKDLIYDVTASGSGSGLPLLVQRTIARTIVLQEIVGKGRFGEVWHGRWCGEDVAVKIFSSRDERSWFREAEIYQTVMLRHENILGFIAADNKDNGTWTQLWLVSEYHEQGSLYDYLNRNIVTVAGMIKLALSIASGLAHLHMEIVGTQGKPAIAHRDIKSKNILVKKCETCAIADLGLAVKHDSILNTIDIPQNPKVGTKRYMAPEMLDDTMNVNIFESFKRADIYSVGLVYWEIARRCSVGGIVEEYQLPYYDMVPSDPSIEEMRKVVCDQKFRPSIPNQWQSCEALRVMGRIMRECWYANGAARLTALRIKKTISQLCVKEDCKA

Compound	tubulogenesis of P0 Cited1creERT2-EGFP progenitors ([1]; CHIR 3 μM, by day 4, GFP expression lost)	expression of CITED1, PAX2, SIX2 and WT1 after subtraction of the component [2]	competence for tubulogenesis after subtraction of the factor [3]	progenitor growth and state in the absence of the factor [3]	tubulogenesis in aggregate culture with WNT/β-catenin agonist [4]	Cited1-driven GFP expression ([1]; LDN 75 nM added to CHIR 3 μM)	effect on CHIR-induced tubulogenesis ([1]; LDN 75 nM added to CHIR 3 μM)	expression of Cited1 and Six2 in cap mesenchyme [5]	reduction in SMAD1/5 phosphorylation compared to vehicle-treated controls [6]	IC50 [7]
Cc1c[nH]c(-c2cnc(NCCNc3ccc(C#N)cn3)nc2-c2ccc(Cl)cc2Cl)n1 [CHIR99021]	underwent tubulogenesis	critical dependence	still competent to undergo tubulogenesis	failed to expand but remained CITED1+	robust tubulogenesis	–	–	–	–	–
C[C@@H](N)[C@H]1CC[C@H](C(=O)Nc2ccncc2)CC1 [Y-27632]	–	critical dependence	still competent to undergo tubulogenesis	significant decrease in cell attachment	–	–	–	–	–	–
O=C1Nc2cc(Br)ccc2/C1=C1/Nc2ccccc2/C1=N\O [BIO]	–	–	–	–	robust tubulogenesis	–	–	–	–	–
c1ccc2c(-c3cnn4cc(-c5ccc(N6CCNCC6)cc5)cnc34)ccnc2c1 [LDN-193189]	–	critical dependence	unable to undergo differentiation	expanded but were largely CITED1 negative	–	maintained GFP expression	blocked tubulogenesis	expression was maintained	greater than 95%	> 500 nM
